Results: patent US20100093811A1 (priority 2007, published 2010)
pIC50: −log10 of the molar value. Read-outs that look alike come from different tables or passages of the source.

How the values were obtained:
[1] = system: acute HIV infection of T-lymphoid cells; test: Assay for inhibition of HIV replication (spread assay); type: cell-based, HIV-1
Protocol: • Assay for Inhibition of HIV Replication
Assays for the inhibition of acute HIV infection of T-lymphoid cells were conducted in accordance with Vacca, J. P. et al., Proc. Natl. Acad. Sci. USA 1994, 91: 4096.

[2] = biological target: wild-type HIV-1 protease (Human immunodeficiency virus type 1 group M subtype B, UniProt P04585); test: Assay for inhibition of microbial expressed HIV protease; type: biochemical
Summary of the method: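 E. coli-expressed protease (5 pM) preincubated with inhibitor 30 min at room temperature in 50 mM sodium acetate pH 5.5, 100 mM NaCl, 0.1% BSA. Substrate Val-Ser-Gln-Asn-(betanapthyl)Ala-Pro-Ile-Val at 440 micromolar, 1 h at 30° C; acid-quenched, product peak area by C18 HPLC gives inhibition.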

[3] = Human immunodeficiency virus 1, T-lymphoid, read-out: Spread - IC95
[4] = wild-type HIV-1 protease expressed in E. coli, peptide substrate, pH 5.5, read-out: Enzyme Inhibition - IC50

| Compound | IC95 [1, 3] [nM] | pIC50 [2, 4] | IC95 ([1]; Human immunodeficiency virus 1, T-lymphoid, read-out: Spread - IC95 (nM)) [nM] | pIC50 [2] | IC95 ([1]; inhibition of HIV-1 replication, 10% FBS, read-out: Spread - IC95) [nM] |
| --- | --- | --- | --- | --- | --- |
| CC[C@@H](CCC[C@@H](CO)N(C(C)C)S(=O)(=O)c1ccc(N)cc1)NC(=O)[C@@H](NC(=O)OC)C(c1ccccc1)c1ccccc1 [Example G18, N-{(1S,5S)-5-[[(4-aminophenyl)sulfonyl](isopropyl)amino]-1-ethyl-6-hydroxyhexyl}-Nα-(methoxycarbonyl)-β-phenyl-L-phenylalaninamide] | 199 | 9.12 |  |  |  |
| CC[C@@H](CCC[C@@H](CO)N(C(C)C)S(=O)(=O)c1ccc(CO)cc1)NC(=O)[C@@H](NC(=O)OC)C(c1ccccc1)c1ccccc1 [Example G19, N-{(1S,5S)-1-ethyl-6-hydroxy-5-[{[4-(hydroxymethyl)phenyl]sulfonyl}(isopropyl)amino]hexyl}-Nα-(methoxycarbonyl)-β-phenyl-L-phenylalaninamide] | 43 | 10.12 |  |  |  |
| CCCN([C@H](CO)CCC[C@@H](NC(=O)[C@@H](NC(=O)OC)C(c1ccccc1)c1ccccc1)C(F)(F)F)S(=O)(=O)c1ccc(N)cc1 [Example H1, N-[(1R,5S)-5-[[(4-aminophenyl)sulfonyl](propyl)amino]-6-hydroxy-1-(trifluoromethyl)hexyl]-Nα-(methoxycarbonyl)-β-phenyl-L-phenylalaninamide] |  | 10.66 | 14 |  |  |
| COC(=O)N[C@H](C(=O)N[C@H](CCC[C@@H](CO)N(CCC(C)C)S(=O)(=O)c1ccc(N)cc1)C(F)(F)F)C(c1ccccc1)c1ccccc1 [Example H2, N-[(1R,5S)-5-[[(4-aminophenyl)sulfonyl](3-methylbutyl)amino]-6-hydroxy-1-(trifluoromethyl)hexyl]-Nα-(methoxycarbonyl)-β-phenyl-L-phenylalaninamide] | 4 |  |  | 11.00 |  |
| COC(=O)N[C@H](C(=O)N[C@H](CCC[C@@H](CO)N(C(C)C)S(=O)(=O)c1ccc(N)cc1)C(F)(F)F)C(c1ccccc1)c1ccccc1 [Example H3, N-[(1R,55)-5-[[(4-aminophenyl)sulfonyl](isopropyl)amino]-6-hydroxy-1-(trifluoromethyl)hexyl]-Nα-(methoxycarbonyl)-β-phenyl-L-phenylalaninamide] |  | 10.12 |  |  | 18 |
| CCN([C@H](CO)CCC[C@@H](NC(=O)[C@@H](NC(=O)OC)C(c1ccccc1)c1ccccc1)C(F)(F)F)S(=O)(=O)c1ccc(N)cc1 [Example H4, N-[(1R,5S)-5-[[(4-aminophenyl)sulfonyl](ethyl)amino]-6-hydroxy-1-(trifluoromethyl)hexyl]-Nα-(methoxycarbonyl)-β-phenyl-L-phenylalaninamide] | 29 |  |  | 9.76 |  |
| COC(=O)N[C@H](C(=O)N[C@H](CCC[C@@H](CO)N(CC(C)C)S(=O)(=O)c1ccc(N)cc1)C(F)(F)F)C(c1ccccc1)c1ccccc1 [Example H5, N-[(1R,5S)-5-[[(4-aminophenyl)sulfonyl](isobutyl)amino]-6-hydroxy-1-(trifluoromethyl)hexyl]-Nα-(methoxycarbonyl)-β-phenyl-L-phenylalaninamide] | 7 |  |  | 10.70 |  |
| COC(=O)N[C@H](C(=O)N[C@H](CCC[C@@H](CO)N(C)S(=O)(=O)c1ccc(N)cc1)C(F)(F)F)C(c1ccccc1)c1ccccc1 [Example H6, N-[(1R,5S)-5-[[(4-aminophenyl)sulfonyl](methyl)amino]-6-hydroxy-1-(trifluoromethyl)hexyl]-Nα-(methoxycarbonyl)-β-phenyl-L-phenylalaninamide] | 138 |  |  | 8.99 |  |
| COC(=O)N[C@@H](Cc1ccccc1Cl)C(=O)N[C@H](CCC[C@@H](CO)N(CC(C)C)S(=O)(=O)c1ccc(CO)cc1)C1CC1 [Example I1, 2-chloro-N-{(1R,5S)-1-cyclopropyl-6-hydroxy-5-[{[4-(hydroxymethyl)phenyl]sulfonyl}-(isobutyl)amino]hexyl}-Nα-(methoxycarbonyl)-L-phenylalaninamide] | 155 | 9.20 |  |  |  |
| COC(=O)N[C@@H](Cc1ccccc1Cl)C(=O)N[C@H](CCC[C@@H](CO)N(C(C)C)S(=O)(=O)c1ccc(CO)cc1)C1CC1 [Example I2, 2-chloro-N-{(1R,5S)-1-cyclopropyl-6-hydroxy-5-[{[4-(hydroxymethyl)phenyl]sulfonyl}(isopropyl)amino]hexyl}-Nα-(methoxycarbonyl)-L-phenylalaninamide] | 422 | 8.65 |  |  |  |
| COC(=O)N[C@H](C(=O)N[C@H](CCC[C@@H](CO)N(C(C)C)S(=O)(=O)c1ccc(CO)cc1)C1CC1)C(c1ccccc1)c1ccccc1 [Example I3, N-{(1R,5S)-1-cyclopropyl-6-hydroxy-5-[{[4-(hydroxymethyl)phenyl]sulfonyl}(isopropyl)amino]hexyl}-Nα-(methoxycarbonyl)-β-phenyl-L-phenylalaninamide] | 50 | 9.87 |  |  |  |
| CCCN([C@H](CO)CCC[C@@H](NC(=O)[C@@H](NC(=O)OC)C(c1ccccc1)c1ccccc1)C1CC1)S(=O)(=O)c1ccc(CO)cc1 [Example I4, N-{(1R,5S)-1-cyclopropyl-6-hydroxy-5-[{[4-(hydroxymethyl)phenyl]sulfonyl}(propyl)amino]hexyl}-Nα-(methoxycarbonyl)-β-phenyl-L-phenylalaninamide] | 29 | 10.24 |  |  |  |
| CCN([C@H](CO)CCC[C@@H](NC(=O)[C@@H](NC(=O)OC)C(c1ccccc1)c1ccccc1)C1CC1)S(=O)(=O)c1ccc(CO)cc1 [Example I5, N-[(1R,5S)-1-cyclopropyl-5-(ethyl{[4-(hydroxymethyl)phenyl]sulfonyl}amino)-6-hydroxyhexyl]-Nα-(methoxycarbonyl)-β-phenyl-L-phenylalaninamide] | 85 | 10.96 |  |  |  |
| COC(=O)N[C@H](C(=O)N[C@H](CCC[C@@H](CO)N(C)S(=O)(=O)c1ccc(CO)cc1)C1CC1)C(c1ccccc1)c1ccccc1 [Example I6, N-{(1R,5S)-1-cyclopropyl-6-hydroxy-5-[{[4-(hydroxymethyl)phenyl]sulfonyl}(methyl)amino]hexyl}-Nα-(methoxycarbonyl)-β-phenyl-L-phenylalaninamide] | 187 | 8.99 |  |  |  |
| CCCN([C@H](CO)CCC[C@@H](NC(=O)[C@@H](NC(=O)OC)C(c1ccccc1)c1ccccc1)C1CC1)S(=O)(=O)c1ccc(N)cc1 [Example I7, N-{(1R,5S)-5-[[(4-aminophenyl)sulfonyl](propyl)amino]-1-cyclopropyl-6-hydroxyhexyl}-Nα-(methoxycarbonyl)-β-phenyl-L-phenylalaninamide] | 43 | 9.69 |  |  |  |
| COC(=O)N[C@H](C(=O)N[C@H](CCC[C@@H](CO)N(C(C)C)S(=O)(=O)c1ccc(N)cc1)C1CC1)C(c1ccccc1)c1ccccc1 [Example I8, N-{(1R,5S)-5-[[(4-aminophenyl)sulfonyl](isopropyl)amino]-1-cyclopropyl-6-hydroxyhexyl}-Nα-(methoxycarbonyl)-β-phenyl-L-phenylalaninamide] | 43 | 9.46 |  |  |  |
| COC(=O)N[C@H](C(=O)N[C@H](CCC[C@@H](CO)N(C)S(=O)(=O)c1ccc(N)cc1)C1CC1)C(c1ccccc1)c1ccccc1 [Example I9, N-{(1R,5S)-5-[[(4-aminophenyl)sulfonyl](methyl)amino]-1-cyclopropyl-6-hydroxyhexyl}-Nα-(methoxycarbonyl)-β-phenyl-L-phenylalaninamide] | 323 | 8.49 |  |  |  |
| CCN([C@H](CO)CCC[C@@H](NC(=O)[C@@H](NC(=O)OC)C(c1ccccc1)c1ccccc1)C1CC1)S(=O)(=O)c1ccc(N)cc1 [Example I10, N-{(1R,5S)-5-[[(4-aminophenyl)sulfonyl](ethyl)amino]-1-cyclopropyl-6-hydroxyhexyl}-Nα-(methoxycarbonyl)-β-phenyl-L-phenylalaninamide] | 105 | 9.13 |  |  |  |
| CC[C@@H](CCC[C@@H](CO)N(CCC(C)C)S(=O)(=O)c1ccc(CO)cc1)NC(=O)[C@@H](NC(=O)OC)C(c1ccccc1)c1ccccc1 [Example J1, N-{(1S,5S)-1-ethyl-6-hydroxy-5-[{[4-(hydroxymethyl)phenyl]sulfonyl}(3-methylbutyl)amino]hexyl}-Nα-(methoxycarbonyl)-β-phenyl-L-phenylalaninamide] | 9 | 10.82 |  |  |  |
| COC(=O)N[C@H](C(=O)N[C@H](CCC[C@@H](CO)N(CCC(C)C)S(=O)(=O)c1ccc(CO)cc1)C(F)(F)F)C(c1ccccc1)c1ccccc1 [Example J2, N-[(1R,55S)-6-hydroxy-5-[{[4-(hydroxymethyl)phenyl]sulfonyl}(3-methylbutyl)amino]-1-(trifluoromethyl)hexyl]-Nα-(methoxycarbonyl)-β-phenyl-L-phenylalaninamide] | 8 | 10.92 |  |  |  |
| COC(=O)N[C@H](C(=O)N[C@H](CCC[C@@H](CO)N(CCC(C)C)S(=O)(=O)c1ccc([C@H](C)O)cc1)C1CC1)C(c1ccc(F)cc1)c1ccc(F)cc1 [Example J3, N-{(1R,5S)-1-cyclopropyl-6-hydroxy-5-[({4-[(1S)-1-hydroxyethyl]phenyl}sulfonyl)(3-methylbutyl)amino]hexyl}-4-fluoro-β-(4-fluorophenyl)-Nα-(methoxycarbonyl)-L-phenylalaninamide] | 25 | 10.96 |  |  |  |
| COC(=O)N[C@H](C(=O)N[C@@H](C)CCC[C@@H](CO)N(CCC(C)C)S(=O)(=O)c1ccc(CO)cc1)C(c1ccccc1)c1ccccc1 [Example J4, N-{(1S,5S)-6-hydroxy-5-[{[4-(hydroxymethyl)phenyl]sulfonyl}(3-methylbutyl)amino]-1-methylhexyl}-Nα-(methoxycarbonyl)-β-phenyl-L-phenylalaninamide] | 6 | 11.15 |  |  |  |
